The values that follow come from PubChem BioAssay AID671 (University of Pittsburgh Molecular Library Screening Center, 2007).

One may read the IC50 as the midpoint of a concentration-inhibition curve. For orientation: inhibition means the drop in the measured response relative to a control, in per cent.

The structures appear in SMILES notation.

Chain of M-phase inducer phosphatase 2 (Homo sapiens) (P30305 whole entry, looked up, the tested form may be a part): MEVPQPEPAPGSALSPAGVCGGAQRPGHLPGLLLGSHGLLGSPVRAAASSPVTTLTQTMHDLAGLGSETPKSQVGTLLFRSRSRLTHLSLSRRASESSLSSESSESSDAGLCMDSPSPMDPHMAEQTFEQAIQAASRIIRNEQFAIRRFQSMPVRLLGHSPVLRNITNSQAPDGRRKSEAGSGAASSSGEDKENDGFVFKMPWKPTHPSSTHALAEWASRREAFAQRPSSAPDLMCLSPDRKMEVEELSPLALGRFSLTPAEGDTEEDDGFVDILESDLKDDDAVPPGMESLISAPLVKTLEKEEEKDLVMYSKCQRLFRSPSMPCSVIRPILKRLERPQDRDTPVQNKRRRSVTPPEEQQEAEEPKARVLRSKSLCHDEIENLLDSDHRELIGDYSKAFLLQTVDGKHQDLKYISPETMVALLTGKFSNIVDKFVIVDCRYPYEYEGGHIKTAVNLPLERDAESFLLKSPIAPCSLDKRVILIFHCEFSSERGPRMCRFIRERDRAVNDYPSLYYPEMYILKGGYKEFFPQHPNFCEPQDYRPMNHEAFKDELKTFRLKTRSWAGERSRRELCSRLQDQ

The first assay addresses M-phase inducer phosphatase 2 (Homo sapiens) (UniProt P30305). Description: inhibition of Cdc25B catalytic domain activity – biochemical, with glutathione, probe assessment, dose response (AID 671). The settings on record: recombinant Cdc25B catalytic domain.
On to `Cc1ccc2c(c1)C1C=CCC1C(C(=O)O)N2` (stereo not drawn), for which the IC50 is 5.89 µM.

Still in this assay, the particulars now being: recombinant Cdc25B catalytic domain, measured here: inhibition at top dose 50 uM, at 50 µM, stronger effect = higher value.
Turning to `CC(=O)Nc1cc(OC(C)=O)c2nonc2c1OC(C)=O`, the inhibition stood at 28.7%.
For `CCOC(=O)C(C(=O)OCC)c1cc(Br)c2noc3c2c1C(=O)c1ccccc1-3`, the inhibition is 36.5%.
As for `CCn1nc(-c2cccs2)nc2c(=O)n(C)c(=O)nc1-2`, the inhibition worked out at 41.5%.
Regarding `Cc1c(N=c2c(=O)c3ccccc3c2=O)c(=O)n(-c2ccccc2)n1C`, the inhibition was found to be 30.4%.
On to `N#Cc1c(N2CCCC2)nc(N)c2c(N)nc(N3CCCC3)cc12`, for which the inhibition was -13.3%.
In the case of `COc1cccc2c(C)c(C(=O)O)[nH]c12`, the inhibition came out at 85.7%.
On to `O=c1[nH]c(Nc2ccccc2)cc2ccccc12`, for which the inhibition stood at 48.6%.
For the molecule `COc1cccc2c1NC(C(=O)O)C1CC=CC21` (stereo not drawn), the inhibition amounted to 85%.
Turning to `O=C(Nc1ccc2nc(-c3ccco3)c(-c3ccco3)nc2c1)N1CCCCCC1`, the inhibition amounted to 85.5%.
Regarding `N#Cc1c(N)sc(=S)c2c1CCN(Cc1ccccc1)C2`, the inhibition was 51%.
On to `O=C1C=Cc2ccccc2C1=O`, for which the inhibition was found to be 78.6%.
The same measure, in the same setting: as for `[O-]/[N+](=C\c1ccncc1)c1ccccc1`, the figure is 4.4%; as for `Nc1cccc2cnccc12`, -3.3%; as for `CCn1nc(-c2ccccc2)nc2c(=O)n(C)c(=O)nc1-2`, 34.5%.
For `Cc1ccc2c(c1)C1C=CCC1C(C(=O)O)N2` (stereo not drawn), the inhibition is 88.9%.
The same measure, in the same setting: to `COc1ccc(Br)cc1/C=c1\sc2nc(-c3ccco3)nn2c1=O` belongs 91.7%; to `O=C1Cc2ccccc2C(=O)N1CCc1ccccc1`, 7.6%.
For the molecule `Cc1ccc2c(c1C)NC(C(=O)O)C1CC=CC21` (stereo not drawn), the inhibition was 89.9%.
Consider `Cc1ccccc1Nc1cc2ccccc2c(=O)[nH]1`, for which the inhibition was 40.3%.
For the molecule `COc1ccc2noc3c2c1C(=O)c1ccccc1-3`, the inhibition turned out to be 16.7%.
Take `Cn1ncnc2c(=O)n(C)c(=O)nc1-2`: the inhibition was 63%.
In the case of `O=C(OC1CCCCC1)c1ccc2c(c1)C1C=CCC1C(C(=O)O)N2` (stereo not drawn), the inhibition stood at 90.2%.
In the case of `CCOc1ccc2noc3c2c1C(=O)c1ccccc1-3`, the inhibition turned out to be 30.7%.
For the molecule `O=C(O)C1Nc2c(O)cccc2C2C=CCC12` (stereo not drawn), the inhibition turned out to be 94.8%.
For `[O-]/[N+](=C\c1ccc(OC(F)F)cc1)c1ccccc1`, the inhibition amounted to 8.3%.
The same measure, in the same setting: as for `O=C(NC1(O)C(=O)c2ccccc2C1=O)c1ccccc1`, the figure is 36%; as for `c1ccc(CSc2nnc(-c3ccco3)c(-c3ccco3)n2)cc1`, 84.7%.
